According to patent publication US9511120B2, “Use of the angiotensin-(1-9) peptide or derivatives thereof, use of vectors overexpressing the ACE2 enzyme that produces angiotensin-(1-9) for preparing medicaments useful for preventing, reverting, inhibiting and/or reducing hypertension and/or inducing vasodilation” (PONTIFICA UNIVERSIDAD CATÓLICA DE CHILE, priority 2012, dated 2016):
Marks after values point to notes of the source that are not given here. Where no end group is shown, it is not given here.

Legend:
[1] = test system: thoracic aortas of hypertensive rats by pressure overload; assay: Goldblatt model: aortic hypertrophy by morphometry; assay type: in vivo, rat; settings: GB rats, thoracic aorta
Description: (§1) Lewis normotensive rats (weight 150±10 g), which were separated randomly into the experimental hypertension model group or GB (Ocaranza et al. J. Hypertens. 20:413-20, 2002) or control group (S) were used. The latter corresponded to pseudo-operated animals. All animals were maintained under controlled conditions of light and darkness and had free access to food and water. Four weeks after surgery and at a blood pressure above 140 mmHg, GB rats were randomized for the chronic administration of angiotensin-(1-9) through an osmotic pump (602 ng kg^−1min^−1) via the jugular vein during two weeks. The animals were euthanized after 6 weeks post-surgery.
Aortic hypertrophy was determined by morphometry. Sections of the descending aorta of 5 μm thick, which were previously fixed in Bouin (1.3% picric acid, 9.5% formaldehyde and 4.8% acetic acid) for 24 hours, embedded in paraffin and stained with hematoxylin-eosin, were used, to be examined later in a light microscope as described by Igase et al. (Am. J. Physiol. 289:H1013-9, 2005). Briefly, images of the aortas were captured by a video camera (Nikon) fixed to a microscope (Nikon), and projected on a monitor; using the software Nis-Element. Lumen areas (LA) and total areas (TA) were calculated and recorded. The tunica media area (TMA) was obtained from the difference between the TA and LA of the aorta. The tunica media thickness (TMT) was defined as the region delimited by the external elastic lamina (EEL) and internal elastic lamina (IEL).

ED-1 = assay: Goldblatt model: ventricular content of ED-1; assay type: in vivo, rat; settings: GB rats, ventricle
Description: as §1
Immunostaining was performed using the streptavidin-biotin-peroxidase method with the inflammation marker ED-1. This is a glycoprotein expressed primarily in the lysosomal membrane of active macrophages (Leskovar et al. J. Exp. Biol. 203:1783-1795, 2000).
In order to block endogenous peroxidase, the samples were deparaffinized, rehydrated and treated with 10% H2O2 in methanol for 1 h. Then, the tissues were incubated with monoclonal antibody anti ED-1 (clone MCA341R, Serotec) diluted 1/1000 in 1% BSA prepared in PBS-0.05% Tween 20 overnight at 4° C. in a humid chamber. The sections were washed three times with 1×PBS-0.05% Tween 20, pH 7.4 for 5 min and incubated with the biotinylated secondary antibody for 30 min at room temperature. […]

[2] = test system: hypertensive myocardial fibrosis by pressure overload; assay: Goldblatt model: volume fraction of total collagen in the ventricle (picrosirius red); assay type: in vivo, rat; settings: GB rats
Description: as §1
Sections of 5 μm of ventricle, previously included in Bouin, which were treated with picrosirius red, were used. The tissue was examined under light microscopy, images were captured with a Nikon DS Fi1 camera and projected on a monitor. The Matlab program was used to measure the interstitial collagen content according to the procedure described by Ocaranza et al. (J. Cardiovasc. Pharmacol. 40:246-54, 2002).

[3] = test system: cardiomyocyte hypertrophy induced by Ang II in vivo; assay: Angiotensin II infusion model: cardiomyocyte hypertrophy (area and perimeter); design: species or system rat
Method: Rats were subjected to the model of angiotensin II infusion (Grobe et al.: Am. J. Physiol. 292: H736-42, 2007). The animals were separated randomly into the following experimental groups: controls (Sham or pseudo-operated), infused with angiotensin II (300 ng/kg min), infused with angiotensin II and angiotensin-(1-9) (300 ng/kg min and 602 ng/kg min, respectively), and then infused with angiotensin II, angiotensin-(1-9) and the angiotensin-(1-7) receptor antagonist, A779 (300 ng/kg min, 602 ng/kg min, and 100 ng/kg min, respectively). In all cases the pumps operated at a flow of 0.5 μL/h and were implanted in the right jugular vein through a catheter fitted in an intrascapular subcutaneous pocket under anesthesia with ketamine HCl/xylazine (35 and 7 mg/kg i.p., respectively), for a period of 14 days.
(§2) The middle portion of the left ventricle (LV) was dehydrated at room temperature for 24 h in Bouin and then embedded in paraffin. Sections of 10-15 μm thick were taken and stained with hematoxylin-eosin, to be examined later in a light microscope in order to observe their general morphological characteristics. Cardiomyocyte size was determined according to Nakamura et al. (Circulation, 98:794-9, 1998). Briefly, images of the cells were captured using a Nikon DS Fi1 camera and projected on a monitor using a software program. The cardiomyocyte area and perimeter were measured and recorded, using the Nis-Element program (Ocaranza et al. J. Hypertens., 28:1054-64, 2010). All measurements were performed by a blinded observer, and at least 80 images of cells per animal, which were randomly selected, were analyzed.

[4] = test system: cardiomyocyte hypertrophy of hypertensive rats by pressure overload; assay: Goldblatt model: cardiomyocyte area and perimeter; assay type: in vivo, rat; settings: GB rats
Description: as §1
as §2, with “Briefly, images of the cells were captured using a Nikon DS Fi1 camera and projected on a monitor using a software program.” left out

[5] = test system: hypertensive rats by clamping the renal artery (Goldblatt model); assay: Goldblatt model (GB, 2 kidneys, 1 clip): body weight, cardiac mass, systolic blood pressure; assay type: in vivo, rat
Description: as §1
Systolic blood pressure (SBP) was measured by the tail plethysmographic method in the animals. To such end, rats were lightly anesthetized with ethyl ether. The measurement was performed once a week by researchers blind to the treatment (Ocaranza et al. J. Hypertens. 20:413-20, 2002).
The degree of cardiac hypertrophy (CH) was measured by the ratio of the cardiac mass (CM), the body mass (BM) and relative cardiac mass (RCM; [CM/BM]*100) (Ocaranza et al., J. Hypertens. 28:1054-1064, 2010).

[6] = co-administered with angiotensin II

DRVYIHPFH was tested, and the “increase in TMA” value [1] was “reduced significantly”, the “increase in TMA/AL” value [1] was “reduced significantly” and the “increase in TMT” value [1] was “reduced significantly”. For the same sequence, the “# Positive cells (ED-1)” value (ED-1) was 0-20, the “Assigned value (ventricular content of ED-1)” value (ED-1) was 1^# (Low number of ED1 and isolated) and the “decrease of VFTC as compared to untreated hypertensive rats” value [2] was 41%. The volume fraction of total collagen (VFTC) ([2]; untreated GB 6.5±1) was 3.8%, the “reduction in cell area as compared to the group infused with angiotensin II alone” value [3, 6] was 20% and the “reduction in cell perimeter as compared to the group infused with angiotensin II alone” value [3, 6] was 11%. For the same sequence, the cardiomyocyte cell area ([3]; left ventricle, two weeks) was 227±2 μm^2, the cardiomyocyte perimeter ([3]; left ventricle, two weeks) was 59.1±0.3 μm and the “decrease of cardiomyocyte area as compared to hypertensive rats” value [4] was 16%. The “decrease of cardiomyocyte perimeter as compared to hypertensive rats” value [4] was 22%, the “decrease of systolic blood pressure” value ([5]; GB rats, from week 1 after the administration, maintained 2 weeks) was 15% and the CM ([5]; GB rats, two weeks treatment) was 0.37 ± 0.02 ^ g. For the same sequence, the RCM ([5]; GB rats, two weeks treatment) was 0.84 ± 0.04 mg/g, the “RCM” value ([5]; hypertensive rats vs. 400±1 in GB, not statistically significant) was 380±2 and the “BW (as printed in text)” value ([5]; rats with HTN vs. untreated GB animals 0.93±0.04) was 0.84 ± 0.03 g.
